Molecular target: T1, PPARγ (Homo sapiens, UniProt P37231)
T1 sequence (P37231 1-505): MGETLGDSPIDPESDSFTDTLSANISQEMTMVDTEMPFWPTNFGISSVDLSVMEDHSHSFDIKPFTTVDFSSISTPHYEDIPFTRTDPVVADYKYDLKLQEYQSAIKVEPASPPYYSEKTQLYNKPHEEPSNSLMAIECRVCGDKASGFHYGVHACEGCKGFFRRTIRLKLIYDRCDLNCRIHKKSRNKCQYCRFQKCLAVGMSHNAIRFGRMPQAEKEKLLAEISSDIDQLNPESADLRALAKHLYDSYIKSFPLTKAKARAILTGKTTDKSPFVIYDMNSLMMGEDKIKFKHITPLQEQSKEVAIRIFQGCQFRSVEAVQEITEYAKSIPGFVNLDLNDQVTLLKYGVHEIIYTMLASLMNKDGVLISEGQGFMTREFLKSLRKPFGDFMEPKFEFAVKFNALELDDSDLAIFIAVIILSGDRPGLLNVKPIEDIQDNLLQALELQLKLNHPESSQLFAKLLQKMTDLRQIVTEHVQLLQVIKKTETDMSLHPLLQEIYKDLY
Assay: FP-based PPARγ ligand screening assay
Assay type: binding

IC50: 18.4 µM
Compound: O=C(/C=C/C=C/c1ccc2c(c1)OCO2)N1CCCCC1 [Piperine]
